Source: PubChem BioAssay (NCI)
“And” between values parts separate entries of the source, which are not always exact repeats. Identical values can stand only once.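 Cells were grown in 96-well plates and exposed to each compound for 48 hours at five concentrations; endpoints were interpolated linearly between bracketing concentrations, or set to the highest concentration if not reached. The concentration for 50% growth inhibition is given as GI50. TGI: concentration producing complete growth inhibition.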

Tests used:
Assay in all cases: NCI tumour cell line growth inhibition, 48 h
UACC-62 melanoma = system: UACC-62 melanoma
SK-MEL-28 melanoma = system: SK-MEL-28 melanoma
HOP-62 NSCLC = system: HOP-62 NSCLC
SF-268 CNS = system: SF-268 CNS
HL-60(TB) leukemia = system: HL-60(TB) leukemia
NCI-H522 lung = system: NCI-H522 lung
UACC-257 melanoma = system: UACC-257 melanoma
SK-MEL-5 melanoma = system: SK-MEL-5 melanoma
RPMI-8226 leukemia = system: RPMI-8226 leukemia
T-47D breast = system: T-47D breast

Row | SMILES | TGI (UACC-62 melanoma) [µM] | TGI (SK-MEL-28 melanoma) [µM] | TGI (HOP-62 NSCLC) [µM] | TGI (SF-268 CNS) [µM] | TGI (HL-60(TB) leukemia) [µM] | TGI (NCI-H522 lung) [µM] | TGI (UACC-257 melanoma) [µM] | TGI (SK-MEL-5 melanoma) | TGI (RPMI-8226 leukemia) [µM] | GI50 (UACC-62 melanoma) | GI50 (SK-MEL-28 melanoma) [µM] | GI50 (HOP-62 NSCLC) [µM] | GI50 (HL-60(TB) leukemia) [µM] | GI50 (NCI-H522 lung) [µM] | GI50 (UACC-257 melanoma) [µM] | GI50 (SK-MEL-5 melanoma) | GI50 (SF-268 CNS) [µM] | GI50 (T-47D breast) [µM] | TGI (T-47D breast) [µM] | GI50 (RPMI-8226 leukemia) [µM]
1 | O=C1C2C3CC(C4C5C=CC(C5)C34)C2C2C3CC(C12)C1C2C=CC(C2)C31 (centres undefined) | > 100 | > 100 | > 100 | > 100 | > 100 | > 100 | > 100 | > 100 µM |  |  |  |  |  |  |  |  |  |  |  | 
2 | COc1ccc(OC)c(/C=N/N=C(\N)NO)c1 | 26.9 | > 100 | > 100 | > 100 | > 100 | 35 | > 100 |  |  |  |  |  |  |  |  |  |  |  |  | 
3 | Cc1cccc(C)c1N1C(=O)C(=O)C(c2nc3ccccc3s2)/C(=N\N)C1=O (centres undefined) | > 100 | > 100 | > 100 | > 100 | > 100 | > 100 | > 100 | > 100 µM | > 100 |  |  |  |  |  |  |  |  |  |  | 
4 | COc1cc(C(=O)c2cnc(-c3cccc4[nH]ccc34)[nH]2)cc(OC)c1OC | 93.6 | > 100 | 20 | > 100 | < 0.01 |  | > 100 | 0.431 µM and 0.275 µM | 24.3 | 0.0509 µM and < 0.01 µM | < 0.01 | < 0.01 | < 0.01 | 0.0369 | 11.9 | 0.0462 µM and < 0.01 µM |  |  |  | 
5 | CNS(=O)(=O)NNS(=O)(=O)c1ccc(OC)cc1 | > 100 |  | > 100 | > 100 | > 100 | > 100 | > 100 | > 100 µM | > 100 |  |  |  |  |  |  |  |  |  |  | 
6 | COc1cc(/C=N/N=C(\N)NO)c(Cl)cc1O | > 100 | > 100 |  | > 100 |  | > 100 | > 100 | > 100 µM | > 100 |  |  |  |  |  |  |  |  |  |  | 
7 | O=C(c1ccc(Cl)cc1)C(O)c1ccc(Cl)cc1 (centres undefined) | > 100 | > 100 | > 100 | > 100 | 82.7 | > 100 | > 100 | > 100 µM | > 100 |  |  |  |  |  |  |  |  |  |  | 
8 | O=C(O)C1[O][Sb][O]C(C(=O)O)C1O (centres undefined) | > 100 | > 100 | > 100 | > 100 |  | > 100 |  | > 100 µM |  | > 100 µM | > 100 | > 100 |  | > 100 |  | > 100 µM | > 100 | > 100 | > 100 | 
9 | CC(=O)[CH-]C(=O)c1ccccc1.CC(=O)[CH-]C(=O)c1ccccc1.CC(=O)[CH-]C(=O)c1ccccc1.[Nd+3].[OH3+] | > 100 | > 100 | > 100 | > 100 | > 100 | > 100 | > 100 | > 100 µM | > 100 | 45.5 µM | 66.9 | 31.9 | 30.1 | 12.1 | 52.1 | 38.1 µM | 41.3 |  |  | 46.6
10 | NC1=NN(c2ccccc2)C(=O)C1C(=O)C(=O)Nc1ccc(Cl)c(Cl)c1 (centres undefined) | > 100 | > 100 | > 100 | > 100 | > 100 | > 100 | > 100 | > 100 µM | > 100 |  |  |  |  |  |  |  |  |  |  | 
